Where two headings read alike, the source gives them in different places.
What was measured:
HIV-1 IN = molecular target: T1, HIV-1 IN (Human immunodeficiency virus type 1 group M subtype B, UniProt P12497); test: HTRF IN multimerization assay; assay type: biochemical; conditions: mean ± SD
T1 construct: made in house
Text: A key property of INLAIs is the ability to promote HIV-1 IN homo-multimerization ([39][–][42]). […] The maximal signal (plateau) in our IN aggregation assay corresponds to the highest HTRF signal increase under saturating INLAI concentration, relative to baseline level. Thus, MUT916, MUT884, MUT871, and MUT872 increased HIV-1 IN aggregation 3.7 to 4.4-fold, while BDM-2, BI-224436, and S-I-82 did so 5 to 6-fold (Table 1).

[1] = system: lab-adapted and clinical HIV-1 isolates; test: Infection assays in primary T CD4+ lymphocytes; assay type: cell-based; conditions: Human immunodeficiency virus 1, Lymphocyte
[2] = system: recombinant NL4-3 viruses with polymorphisms at IN positions 124 and 125; test: Multiple-round infection of MT4 cells with recombinant NL4-3 viruses polymorphic at IN positions 124 and 125; assay type: cell-based, HIV-1
Outline: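 EC50 fold change relative to wild-type TT NL4-3 was derived from CellTiter-Glo viability of exponentially growing MT4 cells (10^6/mL). Cells were exposed for 2 h, with compounds, to NL4-3 clones bearing one of 15 IN 124/125 variants at MOI 0.001.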

[3] = system: NL4-3 HIV-1 with INLAI-selected IN single point mutations; assay type: cell-based
[4] = system: HIV-1 strains resistant to INSTIs, NRTIs, NNRTIs or PIs; assay type: cell-based
Outline: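 Cell viability (CellTiter-Glo luminescence) served as read-out in MT4 cells at 10^6/mL, infected 2 h at MOI 0.001 in presence of graded compound concentrations. Viruses: resistance-mutation recombinants in NL4-3 backbone plus resistant clinical isolates.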

NL4-3 HIV-1 clone = test: Combination antiviral activity assay (MacSynergy II) in NL4-3-infected MT4 cells; assay type: cell-based
Text: To this end, we evaluated the activity of BDM-2 in the presence of approved antiretroviral drugs against NL4-3 HIV-1 clone replicating on MT4 cells. Examples of MacSynergy plots obtained for the combinations of BDM-2 with the protease inhibitor lopinavir (LPV) or the INSTI EVG are shown in Fig. 3A and B, respectively. The results indicated no antagonism of ascending concentrations of BDM-2 with the antiviral activity of LPV or EVG and vice versa. Next, we extended these analyses to a panel of 16 FDA-approved antiretroviral drugs, including 3 protease inhibitors, 6 NRTIs, 4 NNRTIs, and 3 INSTIs.
BDM-2, as lead compound representative of the series, was used in these experiments. Combination studies were performed in MT4 cells infected with NL4-3, as previously described ([3]). Multiple concentrations of BDM-2 were tested in checkerboard pattern in the presence and absence of dilutions of 16 representative approved anti-HIV drugs of different classes. Compound combinations were analyzed by calculations to quantify deviation from additivity at the 50% level. Data were analyzed as described by Prichard and Shipman by using the MacSynergy II program ([54]). Synergy volumes in the range of −25 to +25 define additivity; −50 minor antagonism, +50 minor synergy, and up to 100 and >100 moderate and strong synergy, respectively. Combinations of RBV with AZT or ddI were used as controls for antagonism and synergy, respectively.

[5] = set-up: method as in ref 20 = [20]; 20 Single ascending dose trial investigating safety, tolerability and pharmacokinetics of BDM-2 in healthy male subjects . https://clinicaltrials.gov/ct2/show/NCT03634085 . Accessed 17 July 2020 .; conditions: single ascending dose, healthy male subjects; cited from earlier work
NL4-3 HIV-1 strain = test: Multiple-round infection assay in MT4 cells, NL4-3; assay type: cell-based; conditions: MT4 cells
[6] = molecular target: CCD of HIV-1 IN and IBD of LEDGF/p75 (Human immunodeficiency virus type 1 group M subtype B, UniProt P12497); test: biochemical
[7] = INSTI-resistant, NL4-3 background
[8] = INSTI-resistant, primary patient-derived strain

For `Cc1ccc(C2CC2)c(-c2ccc3c(c2)CCCO3)c1[C@H](OC(C)(C)C)C(=O)O` [BDM-2], the AC50 (HIV-1 IN; concentration for 50% maximum activation of multimerization) was 20 ± 11 nM, the “IN multimerization Plateau” value (HIV-1 IN; maximum multimerization reached versus baseline) was 560 ± 150% and the EC50 ([1]; read-out: EC50 33913N (B)) was 4.2 ± 1.6 nM. It also gave an EC50 ([1]; read-out: EC50 HXB2 (B)) of 3.4 ± 1 nM, an EC50 ([1]; read-out: EC50 KER2008 (A)) of 8.1 ± 1.3 nM and an EC50 ([1]; read-out: EC50 NL4-3 (B)) of 8.3 ± 4.3 nM. For the same molecule, the EC50 ([1]; read-out: EC50 NP1525 (CRF01_AE)) was 11 ± 5 nM, the EC50 ([1]; read-out: EC50 NP1538 (B)) was 13 ± 6 nM and the “Fold change in EC50 relative to parental NL4-3, AA” value ([2]; recombinant NL4-3, IN 124/125 AA) was 1. The “Fold change in EC50 relative to parental NL4-3, AM” value ([2]; recombinant NL4-3, IN 124/125 AM) was 0.4, the “Fold change in EC50 relative to parental NL4-3, AT” value ([2]; recombinant NL4-3, IN 124/125 AT) was 1 and the “Fold change in EC50 relative to parental NL4-3, AV” value ([2]; recombinant NL4-3, IN 124/125 AV) was 2. The “Fold change in EC50 relative to parental NL4-3, GA” value ([2]; recombinant NL4-3, IN 124/125 GA) was 1, the “Fold change in EC50 relative to parental NL4-3, GT” value ([2]; recombinant NL4-3, IN 124/125 GT) was 1 and the “Fold change in EC50 relative to parental NL4-3, NA” value ([2]; recombinant NL4-3, IN 124/125 NA) was 1. For the same molecule, the “Fold change in EC50 relative to parental NL4-3, NT” value ([2]; recombinant NL4-3, IN 124/125 NT) was 1, the “Fold change in EC50 relative to parental NL4-3, NV” value ([2]; recombinant NL4-3, IN 124/125 NV) was 1 and the “Fold change in EC50 relative to parental NL4-3, SA” value ([2]; recombinant NL4-3, IN 124/125 SA) was 1. The “Fold change in EC50 relative to parental NL4-3, ST” value ([2]; recombinant NL4-3, IN 124/125 ST) was 1, the “Fold change in EC50 relative to parental NL4-3, TA” value ([2]; recombinant NL4-3, IN 124/125 TA) was 1 and the “Fold change in EC50 relative to parental NL4-3, TM” value ([2]; recombinant NL4-3, IN 124/125 TM) was 0.3. The “Fold change in EC50 relative to parental NL4-3, TV” value ([2]; recombinant NL4-3, IN 124/125 TV) was 1, the “EC50 fold change compared to wild type NL4-3, A128T” value [3] was 4 and the “EC50 fold change compared to wild type NL4-3, H171Q” value [3] was 3. For the same molecule, the “EC50 fold change compared to wild type NL4-3, N222K” value [3] was 2, the “EC50 fold change compared to wild type NL4-3, T174I” value [3] was 253 and the “EC50 fold change compared to wild type NL4-3, Y99H” value [3] was 4. The “Fold change in EC50 relative to NL4-3, E92Q” value [4, 7] was 1, the “Fold change in EC50 relative to NL4-3, G140S” value [4, 7] was 1 and the “Fold change in EC50 relative to NL4-3, G140S/Q148H” value [4, 7] was 1. For the same molecule, the “Fold change in EC50 relative to NL4-3, N155H” value [4, 7] was 1, the “Fold change in EC50 relative to NL4-3, Q148H” value [4, 7] was 1 and the “Fold change in EC50 relative to NL4-3, Y143R” value [4, 7] was 1. For the same molecule, the “Fold change in EC50 relative to NL4-3, E92Q/N155H (pat.)” value [4, 8] was 1, the “Fold change in EC50 relative to NL4-3, G140S/Q148H (pat.)” value [4, 8] was 1 and the “Fold change in EC50 relative to NL4-3, T97A/N155H (pat.)” value [4, 8] was 1. For the same molecule, the “Fold change in EC50 relative to NL4-3, NLAY351717” value ([4]; NRTI-resistant clone) was 2, the “Fold change in EC50 relative to NL4-3, NLAY351753” value ([4]; NRTI/NNRTI-resistant clone) was 1 and the “Fold change in EC50 relative to NL4-3, K103N/Y181C” value ([4]; NRTI/NNRTIs group, NL4-3 background) was 1. The “Fold change in EC50 relative to NL4-3, ARP-4595” value ([4]; PI-resistant virus) was 1, the “Fold change in EC50 relative to NL4-3, ARP-4596” value ([4]; PI-resistant virus) was 0.5 and the “Fold change in EC50 relative to NL4-3, ARP-11801” value ([4]; PI-resistant virus) was 1. The “Fold change in EC50 relative to NL4-3, ARP-11803” value ([4]; PI-resistant virus) was 1, the “Fold change in EC50 relative to NL4-3, ARP-11807” value ([4]; PI-resistant virus) was 1 and the “Fold change in EC50 relative to NL4-3, ARP-11808” value ([4]; PI-resistant virus) was 1. The “interaction with a panel of 16 FDA-approved antiretroviral drugs” value (NL4-3 HIV-1 clone; 3 protease inhibitors, 6 NRTIs, 4 NNRTIs, 3 INSTIs, MacSynergy) was “no antagonism”, the “interaction with lopinavir (LPV)” value (NL4-3 HIV-1 clone; MacSynergy synergy volume) was “strong synergy (up to 100 and >100 moderate and strong synergy, respectively)” and the “interaction with some of the remaining drugs, including the INSTIs” value (NL4-3 HIV-1 clone; MacSynergy synergy volume) was “moderate synergy (up to 100 and >100 moderate and strong synergy, respectively)”. For the same molecule, the “safety in phase I clinical trial” value [5] was “without any serious adverse event and few mild adverse events”, the EC90 (NL4-3 HIV-1 strain; Human immunodeficiency virus 1, NL43, multiple-round infection, from dose response curves, read-out: EC90 NL4-3) was 13 ± 5.1 nM and the EC50 (NL4-3 HIV-1 strain; Human immunodeficiency virus 1, NL43, multiple-round infection, mean ± SD, n > 5, read-out: EC50 NL4-3) was 8.7 ± 2.8 nM. For the same molecule, the “Selectivity index CC50/EC50 NL4-3” value (NL4-3 HIV-1 strain) was 7,931 and the IC50 [6] was 150 ± 30 nM.
